Data reported in ChEMBL document CHEMBL1201862, “PubChem BioAssay data set” (2004).
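Assay format: 96-well plates, 48-hour exposure. Abbreviation: GI50, concentration required for 50% inhibition of growth.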 Calls of active or inactive are those of the source. Cut-off read from the data, not from the text of the source: active = GI50 up to about 1.1 µM and inactive = higher.

Legend:
Test in all cases: NCI anticancer screen, dose series, 48 h
CAKI-1 = test system: CAKI-1
CCRF-CEM = test system: CCRF-CEM
COLO 205 = test system: COLO 205
EKVX = test system: EKVX
HCT-15 = test system: HCT-15
HOP-62 = test system: HOP-62
HOP-92 = test system: HOP-92
K562 = test system: K562
M14 = test system: M14
MOLT-4 = test system: MOLT-4
NCI-H460 = test system: NCI-H460
NCI-H522 = test system: NCI-H522
OVCAR-4 = test system: OVCAR-4
OVCAR-5 = test system: OVCAR-5
SF-539 = test system: SF-539
SK-MEL-28 = test system: SK-MEL-28
SK-MEL-5 = test system: SK-MEL-5
SK-OV-3 = test system: SK-OV-3
SN12C = test system: SN12C
UACC-62 = test system: UACC-62

SMILES | GI50 (CAKI-1) | GI50 (CCRF-CEM) | GI50 (COLO 205) | GI50 (EKVX) | GI50 (HCT-15) [µM] | GI50 (HOP-62) | GI50 (HOP-92) | GI50 (K562) | GI50 (M14) | GI50 (MOLT-4) | GI50 (NCI-H460) | GI50 (NCI-H522) | GI50 (OVCAR-4) | GI50 (OVCAR-5) | GI50 (SF-539) | GI50 (SK-MEL-28) | GI50 (SK-MEL-5) | GI50 (SK-OV-3) | GI50 (SN12C) | GI50 (UACC-62)
CCC1C(=O)OCc2c1cc1n(c2=O)CCC12OCCO2 (stereo unspecified) | > 100 µM (inactive) | > 100 µM (inactive) | > 100 µM (inactive) | > 100 µM (inactive) | > 100 | > 100 µM (inactive) | > 100 µM (inactive) | > 100 µM (inactive) | > 100 µM (inactive) | > 100 µM (inactive) | > 100 µM (inactive) | > 100 µM (inactive) | > 100 µM (inactive) | > 100 µM (inactive) | > 100 µM (inactive) | > 100 µM (inactive) | > 100 µM (inactive) | > 100 µM (inactive) | > 100 µM (inactive) | > 100 µM (inactive)
CC(C)(C)OC(=O)NNCC(O)COc1ccccc1 (stereo unspecified) | > 100 µM (inactive) | > 100 µM (inactive) | > 100 µM (inactive) | > 100 µM (inactive) | > 100 | > 100 µM (inactive) | > 100 µM (inactive) | > 100 µM (inactive) | > 100 µM (inactive) | > 100 µM (inactive) | > 100 µM (inactive) | > 100 µM (inactive) | > 100 µM (inactive) | > 100 µM (inactive) | > 100 µM (inactive) | > 100 µM (inactive) | > 100 µM (inactive) | > 100 µM (inactive) | > 100 µM (inactive) | > 100 µM (inactive)
CCCCCNc1nonc1N | > 100 µM (inactive) | > 31.6 µM (inactive) | > 100 µM (inactive) | > 100 µM (inactive) | > 100 | > 100 µM (inactive) | > 100 µM (inactive) | > 100 µM (inactive) | > 100 µM (inactive) | > 100 µM (inactive) | > 100 µM (inactive) | > 100 µM (inactive) | > 88.3 µM (inactive) | > 100 µM (inactive) | > 100 µM (inactive) | > 100 µM (inactive) | > 100 µM (inactive) | > 100 µM (inactive) | > 100 µM (inactive) | > 100 µM (inactive)
O=C(/C=C/c1ccccc1)CCN1CCCCC1 | 87.9 µM (inactive) | 39.4 µM (inactive) | 18 µM (inactive) | > 100 µM (inactive) | 22.6 | > 100 µM (inactive) | > 100 µM (inactive) | 40.1 µM (inactive) | 17.5 µM (inactive) | 24.1 µM (inactive) | 40.7 µM (inactive) | 21.4 µM (inactive) | 53 µM (inactive) | > 100 µM (inactive) | 17.8 µM (inactive) | 24.2 µM (inactive) | 32.8 µM (inactive) | 75 µM (inactive) | 20.3 µM (inactive) | 55.2 µM (inactive)
c1ccc(COC[C@H]2C3OCC([C@H](OCc4ccccc4)[C@H]3OCc3ccccc3)N2Cc2ccccc2)cc1 (stereo partly specified) | > 53.7 µM (inactive) | 27.1 µM (inactive) | > 57 µM (inactive) | > 46.7 µM (inactive) | > 45.8 | > 55.2 µM (inactive) | > 57.1 µM (inactive) | 12.4 µM (inactive) | > 54 µM (inactive) | 6.44 µM (inactive) | > 56.4 µM (inactive) | 13.9 µM (inactive) | 40 µM (inactive) | > 52.4 µM (inactive) | > 59 µM (inactive) | > 53.2 µM (inactive) | 30.8 µM (inactive) | > 56.4 µM (inactive) | > 49 µM (inactive) | 29.7 µM (inactive)
O=C(Cc1nc2ccccc2c(=O)n1-c1ccccc1Cl)c1ccncc1 | > 100 µM (inactive) | > 100 µM (inactive) | > 100 µM (inactive) | > 100 µM (inactive) | > 100 | > 100 µM (inactive) | > 100 µM (inactive) | > 100 µM (inactive) | > 100 µM (inactive) | > 100 µM (inactive) | > 100 µM (inactive) | > 100 µM (inactive) | 68.2 µM (inactive) | > 100 µM (inactive) | > 100 µM (inactive) | > 100 µM (inactive) | > 100 µM (inactive) | > 100 µM (inactive) | > 100 µM (inactive) | > 100 µM (inactive)
COc1cc(/C=C2/CCCc3ccccc3C2=O)cc(OC)c1OC | 18.8 µM (inactive) | 4.19 µM (inactive) | 18.2 µM (inactive) | 17.6 µM (inactive) | 12.6 | 24.2 µM (inactive) | 14.8 µM (inactive) | 2.65 µM (inactive) | 18.7 µM (inactive) | 3.46 µM (inactive) | 20.8 µM (inactive) | 11.3 µM (inactive) | 17.2 µM (inactive) | 30.6 µM (inactive) | 18.6 µM (inactive) | 22 µM (inactive) | 3.27 µM (inactive) | 25.5 µM (inactive) | 15.1 µM (inactive) | 16.4 µM (inactive)
O=C(NS(=O)(=O)c1ccccc1)C(Cc1ccccc1)C(Cc1ccccc1)C(=O)NS(=O)(=O)c1ccccc1 (stereo unspecified) | > 100 µM (inactive) | > 100 µM (inactive) | > 100 µM (inactive) | > 100 µM (inactive) |  | > 100 µM (inactive) | > 100 µM (inactive) | > 100 µM (inactive) | > 100 µM (inactive) | > 100 µM (inactive) | > 100 µM (inactive) | > 100 µM (inactive) | > 100 µM (inactive) | > 100 µM (inactive) | > 100 µM (inactive) | > 100 µM (inactive) | > 100 µM (inactive) | > 100 µM (inactive) | > 100 µM (inactive) | > 100 µM (inactive)
Cc1cc(C)nc(Sc2c([N+](=O)[O-])ncn2C)n1 | > 100 µM (inactive) | 56.9 µM (inactive) | > 100 µM (inactive) | > 100 µM (inactive) |  | > 100 µM (inactive) | > 100 µM (inactive) | > 100 µM (inactive) | > 100 µM (inactive) | 69.5 µM (inactive) | > 100 µM (inactive) | > 100 µM (inactive) | > 100 µM (inactive) | > 100 µM (inactive) | > 100 µM (inactive) | > 100 µM (inactive) | > 100 µM (inactive) | > 100 µM (inactive) | > 100 µM (inactive) | > 100 µM (inactive)
COC1C2C=CC(C2)[C@H]1[N+](=O)[O-] (stereo partly specified) | > 100 µM (inactive) | 74.1 µM (inactive) | > 100 µM (inactive) | > 100 µM (inactive) | > 100 | > 100 µM (inactive) | > 100 µM (inactive) | > 100 µM (inactive) | > 100 µM (inactive) | > 100 µM (inactive) | > 100 µM (inactive) | > 100 µM (inactive) | > 100 µM (inactive) | > 100 µM (inactive) | > 100 µM (inactive) |  | > 100 µM (inactive) | > 100 µM (inactive) | > 100 µM (inactive) | > 100 µM (inactive)
COc1cc2c(cc1C)NC(=O)/C2=C\c1ccncc1 | 3.57 µM (inactive) | 2.75 µM (inactive) | 7.19 µM (inactive) | 6.7 µM (inactive) | 4.28 | 6.97 µM (inactive) | 26.1 µM (inactive) | 3.66 µM (inactive) | 3.98 µM (inactive) |  | 17.7 µM (inactive) | 2.94 µM (inactive) | > 100 µM (inactive) | 10.9 µM (inactive) | 2.82 µM (inactive) | 11.1 µM (inactive) | 2.73 µM (inactive) | 3.96 µM (inactive) | 6.15 µM (inactive) | 5.53 µM (inactive)
CCOC(=O)C(=O)Nc1c(C(C)C)cccc1C(C)C | > 100 µM (inactive) | > 100 µM (inactive) | > 100 µM (inactive) | > 100 µM (inactive) | > 100 | > 100 µM (inactive) | > 100 µM (inactive) |  | > 100 µM (inactive) | > 100 µM (inactive) | > 100 µM (inactive) | > 100 µM (inactive) | > 100 µM (inactive) |  | > 100 µM (inactive) | > 100 µM (inactive) | > 100 µM (inactive) | > 100 µM (inactive) | > 100 µM (inactive) | > 100 µM (inactive)
Cc1ccc2[nH]c3c(c2c1)CCC/C3=N/N=C(N)N | 1.39 µM (inactive) | 2.29 µM (inactive) | 1.62 µM (inactive) | 1.92 µM (inactive) |  | 1.91 µM (inactive) | 2.33 µM (inactive) | 2.08 µM (inactive) | 1.57 µM (inactive) | 2.09 µM (inactive) | 1.4 µM (inactive) | 1.87 µM (inactive) | 2.76 µM (inactive) | 2.09 µM (inactive) | 1.62 µM (inactive) | 2.24 µM (inactive) | 1.9 µM (inactive) | 19.1 µM (inactive) | 1.58 µM (inactive) | 2.16 µM (inactive)
CC(C)=CCOc1cc(NC(=S)c2ccsc2C)ccc1Cl | > 100 µM (inactive) | 39.6 µM (inactive) | 37.3 µM (inactive) | 56.8 µM (inactive) | > 100 | 21.4 µM (inactive) | 5.87 µM (inactive) | 7.48 µM (inactive) |  | 20.2 µM (inactive) | 12.4 µM (inactive) | 54.5 µM (inactive) | 16.7 µM (inactive) | 86.7 µM (inactive) | 55.1 µM (inactive) | > 100 µM (inactive) | 36.1 µM (inactive) | 24.5 µM (inactive) | 19 µM (inactive) | 15.6 µM (inactive)
Cc1nc2cc3nc4ccccc4c(O)c3cc2s1 | > 100 µM (inactive) | > 100 µM (inactive) | > 100 µM (inactive) | > 100 µM (inactive) | > 100 | > 100 µM (inactive) | > 100 µM (inactive) | > 100 µM (inactive) | > 100 µM (inactive) | > 100 µM (inactive) | > 100 µM (inactive) | > 100 µM (inactive) | > 100 µM (inactive) | > 100 µM (inactive) | > 100 µM (inactive) |  | > 100 µM (inactive) | > 100 µM (inactive) | > 100 µM (inactive) | > 100 µM (inactive)
